{
  "source": "patent US20050123902A1",
  "about": "“Human papillomavirus inhibitors” (priority 2003, published 2005)",
  "molecular_target": "HPV-16 E2 protein (Human papillomavirus type 16, UniProt P03120)",
  "sequence (P03120 whole entry, the tested form may be a part)": "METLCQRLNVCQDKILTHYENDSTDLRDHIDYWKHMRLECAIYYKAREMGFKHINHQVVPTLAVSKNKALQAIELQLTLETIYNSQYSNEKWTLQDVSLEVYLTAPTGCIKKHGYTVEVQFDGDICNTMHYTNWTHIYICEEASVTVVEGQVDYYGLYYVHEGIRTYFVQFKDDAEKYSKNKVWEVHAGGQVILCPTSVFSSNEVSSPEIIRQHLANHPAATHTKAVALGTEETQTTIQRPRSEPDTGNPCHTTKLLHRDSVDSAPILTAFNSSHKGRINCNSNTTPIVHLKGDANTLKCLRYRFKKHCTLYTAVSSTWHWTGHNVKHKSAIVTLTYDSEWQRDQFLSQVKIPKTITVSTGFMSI",
  "assay": "Determination of dissociation constants by surface plasmon resonance (Biacore 3000, captured GST-E2 fusion)",
  "assay_type": "binding",
  "conditions": "steady state model, PBST containing 2% (v/v) DMF, read-out: dissociation constant",
  "method": "Surface Plasmon Resonance Instrument. Surface plasmon resonance experiments were performed with a Biacore® 3000 Biosensor (Biacore AB, Uppsala, Sweden). To keep the instrument in good working condition, a series of washing steps were performed on a weekly basis. In addition to the prescribed maintenance washes, the fluidic system was primed three times in a row with the following reagents: 0.5% (w/v) SDS, 6 M urea, 1% (v/v) acetic acid, and 0.2 M NaHCO3. When not in use, a standby program injects water at a flow rate of 5 μL/minute to prevent salt build-up in the lines or integrated fluidic cartridge. Whenever running buffer was changed, the system was primed three times in order to equilibrate the sensor chip and the instrument.\nImmobilization of anti-GST Antibody. A CM5 sensor chip was docked and the system was primed three times with filtered and degassed PBST containing 5% (v/v) DMF. Affinity purified and sterile filtered goat-anti-GST IgG (0.8 mg/mL in 150 mM NaCl) from the Biacore GST kit for fusion capture was diluted to 30 μg/mL in 10 mM sodium acetate, pH 5.0 (100 μL per immobilization). Two flow cells were activated with 1:1 NHS:EDC (N-hydroxysuccinimide:[…]) for 8 minutes at a flow rate of 5 μL/min using the “surface preparation: immobilization: amine coupling” wizard application. […]",
  "data": [
    {"compound": "Cn1nnnc1SC[C@@H]1C[C@H](c2ccc(CO)cc2)O[C@H](c2ccc(CN)cc2)O1", "note": "[compound 2]", "values": [
      {"measurement": "Kd", "result": 2.7, "unit": "nM"}
    ]}
  ]
}
